# Reference: PMC10310857 (Nature Communications, 2023)
# Several values for one entry are separate records, joined by “and”; a condition that tells them apart may be missing. Identical values can stand only once. Entries after “also recorded” stand apart in the source; their conditions may differ.
# Columns and labels:
# [1] = biological target: T1, VdPDA1 (Verticillium dahliae, UniProt G2X9U7); type: biochemical
# [2] = biological target: Pst_13661 (Puccinia striiformis f. sp. tritici, UniProt A0A0L0V0Y3, T32S); type: biochemical
# [3] = tested on: R. solani; set-up: species or system R. solani strain RS-1 on soybean; conditions: in vivo
# [4] = tested on: GhRbohD; set-up: species or system Gossypium hirsutum cv. Lvmian; conditions: in vivo
# [5] = tested on: P. striiformis f. sp. tritici (strain CYR32); set-up: species or system P. striiformis f. sp. tritici on wheat; conditions: in vivo
# [6] = tested on: T. harzianum T27; type: cell-based, Trichoderma harzianum
# [7] = tested on: V. dahliae; conditions: in vivo
# [8] = tested on: R. solani strain RS-1; type: cell-based
# [9] = tested on: F. oxysporum; set-up: species or system F. oxysporum strain Fo-2 on soybean; conditions: in vivo
# [10] = tested on: F. graminearum strain Fg-1; type: cell-based
# [11] = tested on: GhMPK6; set-up: species or system Gossypium hirsutum cv. Lvmian; conditions: in vivo
# [12] = biological target: BmCDA7 (Bombyx mori, UniProt H9JW44)
# Description: Effect o f BHA o n the activity of BmCDA7 from the insect Bombyx
# mori. Bars in all graphs represent mean values, whiskers represent mean ± SEM, and black
# [13] = tested on: F. graminearum; set-up: species or system F. graminearum strain Fg-1 on soybean; conditions: in vivo
# [14] = tested on: V. dahliae strain V991; type: cell-based, Verticillium dahliae
# [15] = biological target: T1, VdPDA1; experiment: biochemical
# Protocol: The enzymatic activity of recombinantly expressed proteins was assayed using a fluorogenic labeling method[29]. The reaction mixture consisted of 100 μL of 100 nM testing enzyme and 0.5 mM (GlcNAc)3 in a 50 mM Hepes (pH 7.5) buffer. After incubation for 10 min at 30 °C, free amine production was measured using fluorescamine labeling and quantified with a glucosamine standard. All measurements were carried out in triplicate.
# The compounds were screened to identify the small molecules inhibiting VdPDA1 and Pst_13661 using a liquid-handling robot. The compounds were prepared in a 96-well plate containing one compound per well at 10 mM each in 100% DMSO (except for BHA, which was dissolved in ddH2O). The plates were first diluted to 5 mM. The compounds were screened at 100 μM in 2% DMSO in a final reaction volume of 100 μL, containing 100 nM enzyme and 0.5 mM (GlcNAc)3 in 50 mM Hepes (pH 7.5) buffer. Negative enzyme-free controls and positive controls with and without DMSO were prepared. The plates were incubated at 30 °C for 10 min. All measurements were carried out in triplicate.
# For the determination of the inhibition constants Ki, three substrate (GlcNAc)3 concentrations (0.5, 0.2, and 0.1 mM) and varied inhibitor concentrations were used. The Ki values were determined using Dixon plots[56]. In Dixon plots, the value of lines intersection that converges above the x-axis is denoted as Ki. […]
# [16] = tested on: F. oxysporum strain Fo-2; type: cell-based
# Sequence of BmCDA7 (H9JW44 16-364): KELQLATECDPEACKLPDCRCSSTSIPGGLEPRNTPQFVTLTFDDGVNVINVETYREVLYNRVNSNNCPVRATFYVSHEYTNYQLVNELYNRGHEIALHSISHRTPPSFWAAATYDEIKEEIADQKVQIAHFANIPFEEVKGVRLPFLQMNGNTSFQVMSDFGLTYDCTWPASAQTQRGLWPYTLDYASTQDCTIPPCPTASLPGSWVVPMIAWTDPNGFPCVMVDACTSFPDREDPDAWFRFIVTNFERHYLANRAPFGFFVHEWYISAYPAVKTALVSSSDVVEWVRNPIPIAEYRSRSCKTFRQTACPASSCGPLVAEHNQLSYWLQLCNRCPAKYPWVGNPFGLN
smiles,measurement,setting,value
[Zn+2] [Zn2+],"Fig. S1d enzyme activity, Exp1",[1],76.18
same,"Fig. S1d enzyme activity, Exp2",[1],78.11
same,"Fig. S1d enzyme activity, Exp3",[1],78.27
same,"Fig. S1d enzyme activity, Mean",[1],77.52
same,"Fig. S1c enzyme activity, Exp1",[2],97.91
same,"Fig. S1c enzyme activity, Exp2",[2],92.55
same,"Fig. S1c enzyme activity, Exp3",[2],105.61
same,"Fig. S1c enzyme activity, Mean",[2],98.69
O=C(O)c1cccc(C(=O)O)n1 [DPA],"Fig. S1d enzyme activity, Exp1",[1],0.31
same,"Fig. S1d enzyme activity, Exp2",[1],-0.24
same,"Fig. S1d enzyme activity, Exp3",[1],-0.41
same,"Fig. S1d enzyme activity, Mean",[1],-0.11
same,"Fig. S1c enzyme activity, Exp1",[2],4.96
same,"Fig. S1c enzyme activity, Exp2",[2],8.16
same,"Fig. S1c enzyme activity, Exp3",[2],14.56
same,"Fig. S1c enzyme activity, Mean",[2],9.23
[Ni+2] [Ni2+],"Fig. S1d enzyme activity, Exp1",[1],36.44
same,"Fig. S1d enzyme activity, Exp2",[1],38.96
same,"Fig. S1d enzyme activity, Exp3",[1],38.03
same,"Fig. S1d enzyme activity, Mean",[1],37.81
same,"Fig. S1c enzyme activity, Exp1",[2],49.78
same,"Fig. S1c enzyme activity, Exp2",[2],47.40
same,"Fig. S1c enzyme activity, Exp3",[2],46.47
same,"Fig. S1c enzyme activity, Mean",[2],47.88
"O=C(NO)c1ccccc1 [Compound 1, benzohydroxamic acid]",Fungal biomass of soybean hypocotyls,[3],significantly reduced fungal biomass
same,Lesions on soybean hypocotyls,[3],fewer lesions
same,GhRbohD expression in cotton roots,[4],upregulated
same,Disease indices after P. striiformis f. sp. tritici infection of wheat plants,[5],greatly declined
same,"Fungal growth (Fig. S3b), Mean",[6],3.65 and 3.63
same,Growth of Trichoderma harzianum,[6],does not affect the growth
same,Fungal biomass on cotton plants,[7],significantly reduced
same,Fungal biomass on cotton plants (Fig. 3c) Mean,[7],0.5294 and 0.2725
same,Wilt symptoms of cotton plants,[7],did not exhibit wilt symptoms
same,"Fungal growth (Fig. S3b), Mean",[8],3.03 and 3.13
same,Growth and morphology of R. solani,[8],normal morphology and developmental status; also recorded: does not affect the growth
same,Fungal biomass of soybean hypocotyls,[9],significantly reduced fungal biomass
same,Fungal biomass of soybean hypocotyls (Fig. 5h) Mean,[9],0.6738 and 0.6606 and 0.4822
same,Lesions on soybean hypocotyls,[9],fewer lesions
same,"Fungal growth (Fig. S3b), Mean",[10],4.15 and 4.13 and 4.08
same,Growth and morphology of F. graminearum,[10],normal morphology and developmental status; also recorded: does not affect the growth
same,GhMPK6 expression in cotton roots,[11],upregulated
same,"Activity of BmCDA7 (Fig. S4), Mean",[12],101.71 and 105.43
same,Inhibition of insect chitin deacetylases,[12],could not inhibit
same,Fungal biomass of soybean hypocotyls,[13],significantly reduced fungal biomass
same,Lesions on soybean hypocotyls,[13],fewer lesions
same,Colony morphology and hyphae growth of V. dahliae,[14],not affected
same,"Fungal growth (Fig. S3b), Mean",[14],3.65 and 3.60 and 3.58
same,Ki,[15],8.31 µM
same,"Fungal growth (Fig. S3b), Mean",[16],2.98 and 2.90 and 2.95
same,Growth and morphology of F. oxysporum,[16],normal morphology and developmental status; also recorded: does not affect the growth
